According to the supplement of paper PMC10307832:

What was measured:
Assay in all cases: relative viability (nuclei count vs DMSO), 5 days (fraction); higher = more cells survive
Ibrutinib + Navitoclax = compound: C=CC(=O)N1CCC[C@@H](n2nc(-c3ccc(Oc4ccccc4)cc3)c3c(N)ncnc32)C1 [Ibrutinib] + CC1(C)CCC(c2ccc(Cl)cc2)=C(CN2CCN(c3ccc(C(=O)NS(=O)(=O)c4ccc(N[C@H](CCN5CCOCC5)CSc5ccccc5)c(S(=O)(=O)C(F)(F)F)c4)cc3)CC2)C1 [Navitoclax] (partner 0.5 µM)
Procedure, shortened: (§1)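 A single step with final 0.05% Triton X-100, 1% formaldehyde and 1 ug/ml Hoechst fixed the cells and stained nuclei 5 days after treatment. Lung cancer cell lines in 1536-well plates had been treated by pin tool the day after seeding with one drug alone or a fixed anchor-drug dose plus five library-drug doses (not always all listed) in √10 steps, and nuclei were counted on 4× images. Relative viability is the ratio of nuclei in treated wells to nuclei in vehicle wells, taken as the median of duplicate plates.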

Ibrutinib + Alpelisib = compound: C=CC(=O)N1CCC[C@@H](n2nc(-c3ccc(Oc4ccccc4)cc3)c3c(N)ncnc32)C1 [Ibrutinib] + Cc1nc(NC(=O)N2CCC[C@H]2C(N)=O)sc1-c1ccnc(C(C)(C)C(F)(F)F)c1 [Alpelisib] (partner 2 µM)
Procedure, shortened: as §1

BMX-IN-1 + Olaparib = compound: C=CC(=O)Nc1cc(-n2c(=O)ccc3cnc4ccc(-c5ccc(NS(C)(=O)=O)cc5)cc4c32)ccc1C [BMX-IN-1] + O=C(c1cc(Cc2n[nH]c(=O)c3ccccc23)ccc1F)N1CCN(C(=O)C2CC2)CC1 [Olaparib] (partner 8 µM)
Procedure, shortened: as §1

BMX-IN-1 + Vorinostat = compound: C=CC(=O)Nc1cc(-n2c(=O)ccc3cnc4ccc(-c5ccc(NS(C)(=O)=O)cc5)cc4c32)ccc1C [BMX-IN-1] + O=C(CCCCCCC(=O)Nc1ccccc1)NO [Vorinostat] (partner 1 µM)
Procedure, shortened: as §1

Cell Line | relative viability (Ibrutinib + Navitoclax; first compound 0.005 µM) | relative viability (Ibrutinib + Navitoclax; first compound 0.01581 µM) | relative viability (Ibrutinib + Navitoclax; first compound 0.05 µM) | relative viability (Ibrutinib + Navitoclax; first compound 0.1581 µM) | relative viability (Ibrutinib + Navitoclax; first compound 0.5 µM) | relative viability (Ibrutinib + Alpelisib; first compound 0.005 µM) | relative viability (Ibrutinib + Alpelisib; first compound 0.01581 µM) | relative viability (Ibrutinib + Alpelisib; first compound 0.05 µM) | relative viability (Ibrutinib + Alpelisib; first compound 0.1581 µM) | relative viability (Ibrutinib + Alpelisib; first compound 0.5 µM) | relative viability (BMX-IN-1 + Olaparib; first compound 0.02 µM) | relative viability (BMX-IN-1 + Olaparib; first compound 0.2 µM) | relative viability (BMX-IN-1 + Olaparib; first compound 0.6325 µM) | relative viability (BMX-IN-1 + Olaparib; first compound 2 µM) | relative viability (BMX-IN-1 + Vorinostat; first compound 0.02 µM) | relative viability (BMX-IN-1 + Vorinostat; first compound 0.2 µM) | relative viability (BMX-IN-1 + Vorinostat; first compound 0.6325 µM) | relative viability (BMX-IN-1 + Vorinostat; first compound 2 µM)
HOP-62 | 1.16 | 1.11 | 1.16 | 1.07 | 1.2 | 0.638 | 0.954 | 1.02 | 1.2 | 0.918 | 0.403 | 0.485 | 0.33 | 0.379 | 0.742 | 0.755 | 0.613 | 0.559
NCI-H2228 | 0.859 | 0.838 | 0.932 | 0.911 | 0.836 | 0.807 | 0.677 | 0.747 | 0.723 | 0.671 | 0.768 | 0.835 | 0.667 | 0.784 | 0.938 | 0.884 | 0.531 | 0.561
SW 1573 | 0.904 | 0.857 | 1.01 | 0.95 | 0.848 | 0.632 | 0.807 | 0.844 | 0.749 | 0.811 | 0.592 | 0.49 | 0.433 | 0.343 | 0.845 | 0.98 | 0.709 | 0.0976
PC-14 | 1.04 | 1.05 | 1.12 | 1.05 | 0.922 | 0.974 | 0.954 | 0.909 | 1.05 | 0.632 | 0.265 | 0.265 | 0.297 | 0.266 | 0.863 | 0.86 | 1.01 | 0.0519
